Laboratory results from article PMC6009910, “Tertiary amine derivatives of chlorochalcone as acetylcholinesterase (AChE) and buthylcholinesterase (BuChE) inhibitors: the influence of chlorine, alkyl amine side chain and α,β-unsaturated ketone group” (Journal of Enzyme Inhibition and Medicinal Chemistry, 2016).
“And” between values parts separate entries of the source, which are not always exact repeats. Equal values may be shown once. “Also recorded” adds a separate entry of the source.

What was measured:
[1] = target: T1, BuChE (Rattus norvegicus, UniProt Q9JKC1); test: BuChE inhibition assay (Ellman method); type: biochemical, Sprague–Dawley rat
T1 construct: The brain and serum of Sprague–Dawley rat was used as the resource of AChE and BuChE, respectively; from tissue; host or cells: Sprague-Dawley rat serum
T1 sequence (Q9JKC1 24-597): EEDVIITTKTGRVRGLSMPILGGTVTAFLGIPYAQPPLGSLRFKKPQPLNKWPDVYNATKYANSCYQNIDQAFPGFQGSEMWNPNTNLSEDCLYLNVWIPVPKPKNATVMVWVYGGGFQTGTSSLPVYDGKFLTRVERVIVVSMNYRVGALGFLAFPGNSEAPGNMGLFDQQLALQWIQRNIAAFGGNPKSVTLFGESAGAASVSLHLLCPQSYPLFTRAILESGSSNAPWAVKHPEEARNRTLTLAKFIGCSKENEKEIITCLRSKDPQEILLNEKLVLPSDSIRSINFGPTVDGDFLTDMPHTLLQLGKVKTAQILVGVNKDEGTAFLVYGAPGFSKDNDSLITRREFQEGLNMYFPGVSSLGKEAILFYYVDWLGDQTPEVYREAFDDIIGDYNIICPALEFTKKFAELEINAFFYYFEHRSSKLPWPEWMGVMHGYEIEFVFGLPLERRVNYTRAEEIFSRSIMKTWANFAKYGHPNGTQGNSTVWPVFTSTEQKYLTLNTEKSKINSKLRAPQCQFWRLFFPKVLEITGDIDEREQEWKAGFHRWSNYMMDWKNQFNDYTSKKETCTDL
Experimental: (§1) AChE/BuChE activity assays were conducted by Ellman method with light modification. The brain and serum of Sprague–Dawley rat was used as the resource of AChE and BuChE, respectively. Each compound was dissolved in Tween 80 and diluted with water to various concentrations immediately before use. The reaction mixture containing 40 µL AChE/BuChE, 100 µL acetylthiocholine iodide/S-Butyrylthiocholine iodide, 2.76 mL Na2HPO4/NaH2PO4 buffer (pH 8.0, 0.1 mol/L), and 100 µL different concentrations of test compounds were incubated at 30 °C for 25 min. Then the reaction was terminated via adding 100 µL 20% sodium dodecyl sulfate (SDS), then 100 µL 10 mmol/L 5, 5'-Dithiobis-(2-nitrobenzoic acid) (DTNB) was added to generate the yellow anion 5-thio-2-nitro-benzoic acid. The absorbance of each assay mixture was measured at 412 nm by UV spectroscopy. The IC50 values were calculated by Bliss method and expressed as mean ± SD of the replicates.

[2] = target: T2, AChE (Rattus norvegicus, UniProt P37136); test: biochemical; type: biochemical; settings: for IC50: rat brain AChE, means ± SD of three experiments; for Selectivity for AChE, IC50 (BuChE)/IC50 (AChE): ratio IC50 (BuChE)/IC50 (AChE)
T2 construct: The brain and serum of Sprague–Dawley rat was used as the resource of AChE and BuChE, respectively; from tissue; host or cells: Sprague-Dawley rat brain
T2 sequence (P37136 32-614): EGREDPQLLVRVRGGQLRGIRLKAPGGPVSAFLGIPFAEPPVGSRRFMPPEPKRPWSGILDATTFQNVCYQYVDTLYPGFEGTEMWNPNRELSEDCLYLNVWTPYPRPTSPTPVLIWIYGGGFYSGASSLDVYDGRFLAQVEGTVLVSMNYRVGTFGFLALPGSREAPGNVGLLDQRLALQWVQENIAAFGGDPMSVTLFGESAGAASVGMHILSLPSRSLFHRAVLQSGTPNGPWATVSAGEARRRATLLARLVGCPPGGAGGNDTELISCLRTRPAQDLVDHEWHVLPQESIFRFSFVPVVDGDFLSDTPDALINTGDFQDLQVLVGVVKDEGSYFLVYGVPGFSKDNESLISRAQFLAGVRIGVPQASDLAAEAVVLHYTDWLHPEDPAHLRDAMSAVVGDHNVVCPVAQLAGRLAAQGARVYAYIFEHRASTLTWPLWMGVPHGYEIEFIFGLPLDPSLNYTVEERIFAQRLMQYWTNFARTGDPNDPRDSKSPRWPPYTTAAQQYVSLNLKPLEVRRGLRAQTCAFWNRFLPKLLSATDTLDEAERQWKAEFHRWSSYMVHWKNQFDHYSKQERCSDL
Experimental: as §1

[3] = Log p measurement by shake flask method; type: physicochemical; settings: octanol / PBS (pH =7.4), triplicate
Experimental: Log p, defined as the logarithm of octanol-water partition coefficient is an important parameter to evaluate the lipophilicify of compounds. It can be calculated by determining the concentration of compound in octanol phase and water phase until the partition equilibrium was completed. In present investigation, log p of compounds 4a∼4l was measured by the shake flask method with slight modification, and PBS (pH =7.4) was used as the water phase. The mobile phase was methanol: 0.1% triethylamine (TEA)/80:20 (v/v), at a flow rate of 1.0 mL.min^−1 through a C18 column ([…] ×4.6 mm, 5 µm) at 32 °C with detect wavelength 318 nm. Experiments were conducted in triplicate and log p values were calculated.

[4] = target: T2, AChE; test: Kinetic studies of AChE inhibition (Lineweaver–Burk); type: biochemical
Experimental: as §1, with “replicates. Rivastigmine was used as the control drug.” for “replicates.”
Kinetic experiment was conducted by a reported method with some modifications. Compound 4l was added into the assay solution and pre-incubated with the enzyme at 30 °C, followed by the addition of 100-µL acetylthiocholine iodide including five concentrations. The assay solution contained 100 µL compound 4l, 100 µL DTNB, 2.76 mL 0.1 mol/L Na2HPO4/NaH2PO4 buffer (pH 8.0). Kinetic profile of AChE was determined by UV spectrophotometer at 412 nm. Additionally, the blank control experiment was conducted with the vehicle to replace compound 4l solution.

## O=C(/C=C/c1cccc(Cl)c1)c1ccc(O)cc1 [Compound 3b, 4'-Hydroxy-3-chlorochalcone]
[1]
  IC50: > 500 µM
[2]
  IC50: > 500 µM

## CC(=O)N1N=C(c2ccc(OCCN3CCCC3)cc2)CC1c1ccc(Cl)cc1 (stereo not shown) [Compound 5d, 1–(5-(4-Chlorophenyl)-3–(4-(2-(pyrrolidin-1-yl)ethoxy)phenyl)-4,5-dihydro-1H-pyrazol-1-yl) ethan-1-one]
[1]
  IC50: 108 ± 5.56 µM
[2]
  IC50: 2.04 ± 0.26 µM
  Selectivity for AChE, IC50 (BuChE)/IC50 (AChE): 52.96

## O=C(/C=C/c1ccccc1Cl)c1ccc(OCCN2CCCC2)cc1 [Compound 4j, (E)-3–(2-chlorophenyl)-1–(4-(2-(pyrrolidin-1-yl)ethoxy)phenyl)prop-2-en-1-one]
[1]
  IC50: 32.1 ± 5.71 µM
[2]
  IC50: 0.81 ± 0.03 µM
  Selectivity for AChE, IC50 (BuChE)/IC50 (AChE): 39.6
[3]
  logP: 1.85

## CCN(CC)CCOc1ccc(C(=O)/C=C/c2cccc(Cl)c2)cc1 [Compound 4e, (E)-3–(3-chlorophenyl)-1–(4-(2-(diethylamino)ethoxy)phenyl)prop-2-en-1-one]
[1]
  IC50: 80.2 ± 7.18 µM
[2]
  IC50: 5.83 ± 0.42 µM
  Selectivity for AChE, IC50 (BuChE)/IC50 (AChE): 13.8
[3]
  logP: 1.62

## CC(=O)N1N=C(c2ccc(OCCN3CCCC3)cc2)CC1c1cccc(Cl)c1 (stereo not shown) [Compound 5c, 1–(5-(3-Chlorophenyl)-3–(4-(2-(pyrrolidin-1-yl)ethoxy)phenyl)-4,5-dihydro-1H-pyrazol-1-yl)ethan-1-one]
[1]
  IC50: 27.6 ± 2.58 µM
[2]
  IC50: 2.41 ± 0.34 µM
  Selectivity for AChE, IC50 (BuChE)/IC50 (AChE): 11.5

## CCN(CC)CCOc1ccc(C(=O)/C=C/c2ccccc2Cl)cc1 [Compound 4d, (E)-3–(2-chlorophenyl)-1–(4-(2-(diethylamino)ethoxy)phenyl)prop-2-en-1-one]
[1]
  IC50: 63.8 ± 9.21 µM
[2]
  IC50: 5.42 ± 0.2 µM
  Selectivity for AChE, IC50 (BuChE)/IC50 (AChE): 11.8
[3]
  logP: 1.63

## CCN(CC)CCOc1ccc(C(=O)/C=C/c2ccc(Cl)cc2)cc1 [Compound 4f, (E)-3–(4-chlorophenyl)-1–(4-(2-(diethylamino)ethoxy)phenyl)prop-2-en-1-one]
[1]
  IC50: 101 ± 17.2 µM
[2]
  IC50: 3.78 ± 0.39 µM
  Selectivity for AChE, IC50 (BuChE)/IC50 (AChE): 26.7
[3]
  logP: 1.69

## O=C(/C=C/c1cccc(Cl)c1)c1ccc(OCCN2CCCCC2)cc1 [Compound 4h, (E)-3–(3-chlorophenyl)-1–(4-(2-(piperidin-1-yl)ethoxy)phenyl)prop-2-en-1-one]
[1]
  IC50: 24.5 ± 6.14 µM
[2]
  IC50: 1.31 ± 0.17 µM
  Selectivity for AChE, IC50 (BuChE)/IC50 (AChE): 18.7
[3]
  logP: 1.72

## CN(C)CCOc1ccc(C(=O)/C=C/c2ccc(Cl)cc2)cc1 [Compound 4c, (E)-3–(4-chlorophenyl)-1–(4-(2-(dimethylamino)ethoxy)phenyl)prop-2-en-1-one]
[1]
  IC50: 43.6 ± 6.94 µM
[2]
  IC50: 1.55 ± 0.16 µM
  Selectivity for AChE, IC50 (BuChE)/IC50 (AChE): 28.1
[3]
  logP: 1.61

## O=C(/C=C/c1ccc(Cl)cc1)c1ccc(OCCN2CCCCC2)cc1 [Compound 4i, (E)-3–(4-chlorophenyl)-1–(4-(2-(piperidin-1-yl)ethoxy)phenyl)prop-2-en-1-one]
[1]
  IC50: 114 ± 26.1 µM
[2]
  IC50: 0.91 ± 0.09 µM
  Selectivity for AChE, IC50 (BuChE)/IC50 (AChE): 125.5
[3]
  logP: 1.79

## O=C(/C=C/c1ccc(Cl)cc1)c1ccc(OCCN2CCCC2)cc1 [Compound 4l, (E)-3–(4-chlorophenyl)-1–(4-(2-(pyrrolidin-1-yl)ethoxy)phenyl)prop-2-en-1-one]
[4]; AChE, mixed-type inhibition
  noncompetitive constant (Ki’): 2.95 µM
[4]; Lineweaver–Burk analysis, Km increased and Vmax decreased with concentration
  inhibition type: mixed-type inhibition; also recorded: mixed-type inhibitor
[4]; Supplement Table 2
  Ki’: 2.95 µM
[4]; compound 4l at 0.22 µM
  Vmax: 0.0273 ΔAmin-1
[4]; compound 4l at 0.43 µM
  Vmax: 0.0263 ΔAmin-1
[4]; compound 4l at […]
  Vmax: 0.0230 ΔAmin-1
[4]; read-out: competitive inhibition constant (Ki)
  Ki: 0.38 µM
[1]
  IC50: 113 ± 18.2 µM
[2]
  IC50: 0.17 ± 0.06 µM
  Selectivity for AChE, IC50 (BuChE)/IC50 (AChE): 667 and 667.2
[3]
  logP: 1.83

## O=C(/C=C/c1cccc(Cl)c1)c1ccc(OCCN2CCCC2)cc1 [Compound 4k, (E)-3–(3-chlorophenyl)-1–(4-(2-(pyrrolidin-1-yl)ethoxy)phenyl)prop-2-en-1-one]
[1]
  IC50: 31.1 ± 3.41 µM
[2]
  IC50: 0.28 ± 0.05 µM
  Selectivity for AChE, IC50 (BuChE)/IC50 (AChE): 110.9
[3]
  logP: 1.81

## CC(=O)N1N=C(c2ccc(OCCN3CCCC3)cc2)CC1c1ccccc1Cl (stereo not shown) [Compound 5b, 1–(5-(2-Chlorophenyl)-3–(4-(2-(pyrrolidin-1-yl)ethoxy)phenyl)-4,5-dihydro-1H-pyrazol-1-yl) ethan-1-one]
[1]
  IC50: 29.9 ± 1.25 µM
[2]
  IC50: 6.31 ± 0.16 µM
  Selectivity for AChE, IC50 (BuChE)/IC50 (AChE): 4.74

## O=C(/C=C/c1ccccc1Cl)c1ccc(OCCN2CCCCC2)cc1 [Compound 4g, (E)-3–(2-chlorophenyl)-1–(4-(2-(piperidin-1-yl)ethoxy)phenyl)prop-2-en-1-one]
[1]
  IC50: 35.6 ± 7.31 µM
[2]
  IC50: 1.8 ± 0.48 µM
  Selectivity for AChE, IC50 (BuChE)/IC50 (AChE): 19.8
[3]
  logP: 1.75

## O=C(/C=C/c1ccccc1Cl)c1ccc(O)cc1 [Compound 3a, 4'-Hydroxy-2-chlorochalcone]
[1]
  IC50: > 500 µM
[2]
  IC50: > 500 µM

## O=C(/C=C/c1ccc(Cl)cc1)c1ccc(O)cc1 [Compound 3c, 4'-Hydroxy-4-chlorochalcone]
[1]
  IC50: > 500 µM
[2]
  IC50: > 500 µM

## CC(=O)N1N=C(c2ccc(OCCN3CCCCC3)cc2)CC1c1ccc(Cl)cc1 (stereo not shown) [Compound 5a, 1–(5-(4-Chlorophenyl)-3–(4-(2-(piperidin-1-yl)ethoxy)phenyl)-4,5-dihydro-1H-pyrazol-1-yl) ethan-1-one]
[1]
  IC50: 97.6 ± 3.78 µM
[2]
  IC50: 5.94 ± 0.27 µM
  Selectivity for AChE, IC50 (BuChE)/IC50 (AChE): 16.4

## CN(C)CCOc1ccc(C(=O)/C=C/c2ccccc2Cl)cc1 [Compound 4a, (E)-3–(2-chlorophenyl)-1–(4-(2-(dimethylamino)ethoxy)phenyl)prop-2-en-1-one]
[1]
  IC50: 41.1 ± 2.31 µM
[2]
  IC50: 2.11 ± 0.38 µM
  Selectivity for AChE, IC50 (BuChE)/IC50 (AChE): 19.5
[3]
  logP: 1.75

## CN(C)CCOc1ccc(C(=O)/C=C/c2cccc(Cl)c2)cc1 [Compound 4b, (E)-3–(3-chlorophenyl)-1–(4-(2-(dimethylamino)ethoxy)phenyl)prop-2-en-1-one]
[1]
  IC50: 32.1 ± 7.16 µM
[2]
  IC50: 3.76 ± 0.26 µM
  Selectivity for AChE, IC50 (BuChE)/IC50 (AChE): 8.5
[3]
  logP: 1.83
